{"source": "patent US20250262279A1", "about": "“DOSE REGIMEN FOR LONG-ACTING GLP1/GLUCAGON RECEPTOR AGONISTS” (Boehringer Ingelheim International GmbH, priority 2021, published 2025)", "key": {"[1]": {"test": "first-in-man Phase I single-rising-dose study, adverse events", "format": "in vivo, human", "experimental": "Compound I was recently studied in a first-in-man Phase I single-rising-dose study. In this study, a dose of 0.3 mg led to ‘mild loss of appetite’ in 33% of healthy subjects. This specific AE increased to 50% in the 0.5 mg dose group. Dose escalation to 1.2 mg was associated with 83% of the subjects experiencing moderate to severe nausea for 1 to 6 days and mild to severe vomiting."}, "[2]": {"test": "Example 1: plasma pharmacokinetics", "format": "in vivo", "details": "human, sc; for Cmax: read-out: Cmax (gMean)"}}, "note": "Read-outs that look alike come from different tables or passages of the source.", "data": [{"compound": "CC[C@H](C)[C@H](NC(=O)[C@H](Cc1ccccc1)NC(=O)[C@H](CC(=O)O)NC(=O)[C@H](CCCCN)NC(=O)[C@H](C)NC(=O)[C@H](C)NC(=O)[C@H](CCCNC(=N)N)NC(=O)[C@H](CCC(=O)O)NC(=O)[C@H](CC(=O)O)NC(=O)[C@H](CC(C)C)NC(=O)[C@H](Cc1ccc(O)cc1)NC(=O)[C@H](CCCCN)NC(=O)[C@H](CO)NC(=O)[C@H](Cc1ccc(O)cc1)NC(=O)[C@H](CC(=O)O)NC(=O)[C@H](CO)NC(=O)[C@@H](NC(=O)[C@H](Cc1ccccc1)NC(=O)[C@@H](NC(=O)CNC(=O)[C@H](CCC(N)=O)NC(=O)C1(NC(=O)[C@@H](N)Cc2c[nH]cn2)CCC1)[C@@H](C)O)[C@@H](C)O)C(=O)N[C@@H](CCCCNC(=O)CNC(=O)CNC(=O)[C@H](CO)NC(=O)CNC(=O)[C@H](CO)NC(=O)CNC(=O)CC[C@H](NC(=O)CCCCCCCCCCCCCCCCC(=O)O)C(=O)O)C(=O)N[C@@H](Cc1c[nH]c2ccccc12)C(=O)N[C@@H](CC(C)C)C(=O)N[C@@H](CCC(=O)O)C(=O)N[C@@H](CO)C(=O)N[C@@H](C)C(N)=O", "note": "[Compound I]", "values": [{"measurement": "healthy subjects with mild loss of appetite", "setting": "[1]; single dose 0.3 mg", "result": 33, "unit": "%"}, {"measurement": "healthy subjects with mild loss of appetite", "setting": "[1]; single dose 0.5 mg", "result": 50, "unit": "%"}, {"measurement": "subjects with moderate to severe nausea for 1 to 6 days and mild to severe vomiting", "setting": "[1]; single dose 1.2 mg", "result": 83, "unit": "%"}, {"measurement": "AUC(0-t)", "setting": "[2]; 0.3 mg, Ex.1 twice weekly scheme, wk 1, 0.3 mg sc, read-out: AUC0-72 (gMean)", "result": 0.342, "unit": "µM·h"}, {"measurement": "Cmax", "setting": "[2]; 0.3 mg, Ex.1 twice weekly scheme, wk 1, 0.3 mg sc", "result": 5.38, "unit": "nM"}, {"measurement": "AUC(0-t)", "setting": "[2]; 0.3 mg, Ex.1 weekly scheme 1, wk 1, 0.3 mg sc, read-out: AUC0-168 (gMean)", "result": 0.617, "unit": "µM·h"}, {"measurement": "Cmax", "setting": "[2]; 0.3 mg, Ex.1 weekly scheme 1, wk 1, 0.3 mg sc", "result": 5.08, "unit": "nM"}, {"measurement": "AUC(0-t)", "setting": "[2]; 0.4 mg, Ex.1 weekly scheme 2, wk 1, 0.4 mg sc, read-out: AUC0-168 (gMean)", "result": 0.818, "unit": "µM·h"}, {"measurement": "Cmax", "setting": "[2]; 0.4 mg, Ex.1 weekly scheme 2, wk 1, 0.4 mg sc", "result": 6.51, "unit": "nM"}, {"measurement": "AUC(0-t)", "setting": "[2]; 0.6 mg, Ex.1 twice weekly scheme, wk 3, 0.6 mg sc, read-out: AUC0-72 (gMean)", "result": 1.2, "unit": "µM·h"}, {"measurement": "Cmax", "setting": "[2]; 0.6 mg, Ex.1 twice weekly scheme, wk 3, 0.6 mg sc", "result": 20.4, "unit": "nM"}, {"measurement": "AUC(0-t)", "setting": "[2]; 0.6 mg, Ex.1 weekly scheme 1, wk 2, 0.6 mg sc, read-out: AUC0-168 (gMean)", "result": 1.41, "unit": "µM·h"}, {"measurement": "Cmax", "setting": "[2]; 0.6 mg, Ex.1 weekly scheme 1, wk 2, 0.6 mg sc", "result": 12.3, "unit": "nM"}, {"measurement": "AUC(0-t)", "setting": "[2]; 0.6 mg, Ex.1 weekly scheme 3, wk 1, 0.6 mg sc, read-out: AUC0-168 (gMean)", "result": 1.24, "unit": "µM·h"}, {"measurement": "Cmax", "setting": "[2]; 0.6 mg, Ex.1 weekly scheme 3, wk 1, 0.6 mg sc", "result": 10.7, "unit": "nM"}, {"measurement": "AUC(0-t)", "setting": "[2]; 0.6 mg, Ex.1 weekly scheme 3, wk 2, 0.6 mg sc, read-out: AUC0-168 (gMean)", "result": 1.71, "unit": "µM·h"}, {"measurement": "Cmax", "setting": "[2]; 0.6 mg, Ex.1 weekly scheme 3, wk 2, 0.6 mg sc", "result": 14.4, "unit": "nM"}, {"measurement": "AUC(0-t)", "setting": "[2]; 0.6 mg, Ex.1 weekly scheme 4, wk 1, 0.6 mg sc, read-out: AUC0-168 (gMean)", "result": 1.57, "unit": "µM·h"}, {"measurement": "Cmax", "setting": "[2]; 0.6 mg, Ex.1 weekly scheme 4, wk 1, 0.6 mg sc", "result": 15.7, "unit": "nM"}, {"measurement": "AUC(0-t)", "setting": "[2]; 0.6 mg, Ex.1 weekly scheme 4, wk 3, 0.6 mg sc, read-out: AUC0-168 (gMean)", "result": 2.49, "unit": "µM·h"}, {"measurement": "Cmax", "setting": "[2]; 0.6 mg, Ex.1 weekly scheme 4, wk 3, 0.6 mg sc", "result": 22.3, "unit": "nM"}, {"measurement": "AUC(0-t)", "setting": "[2]; 0.6 mg, Ex.1 weekly scheme 5, wk 1, 0.6 mg sc, read-out: AUC0-168 (gMean)", "result": 1.44, "unit": "µM·h"}, {"measurement": "Cmax", "setting": "[2]; 0.6 mg, Ex.1 weekly scheme 5, wk 1, 0.6 mg sc", "result": 13.2, "unit": "nM"}, {"measurement": "AUC(0-t)", "setting": "[2]; 0.8 mg, Ex.1 weekly scheme 2, wk 2, 0.8 mg sc, read-out: AUC0-168 (gMean)", "result": 2.04, "unit": "µM·h"}, {"measurement": "Cmax", "setting": "[2]; 0.8 mg, Ex.1 weekly scheme 2, wk 2, 0.8 mg sc", "result": 16.9, "unit": "nM"}, {"measurement": "AUC(0-t)", "setting": "[2]; 0.9 mg, Ex.1 twice weekly scheme, wk 5, 0.9 mg sc, read-out: AUC0-72 (gMean)", "result": 2.39, "unit": "µM·h"}, {"measurement": "Cmax", "setting": "[2]; 0.9 mg, Ex.1 twice weekly scheme, wk 5, 0.9 mg sc", "result": 40.8, "unit": "nM"}, {"measurement": "AUC(0-t)", "setting": "[2]; 0.9 mg, Ex.1 twice weekly scheme, wk 6, 0.9 mg sc, read-out: AUC0-72 (gMean)", "result": 2.78, "unit": "µM·h"}, {"measurement": "Cmax", "setting": "[2]; 0.9 mg, Ex.1 twice weekly scheme, wk 6, 0.9 mg sc", "result": 49.2, "unit": "nM"}, {"measurement": "AUC(0-t)", "setting": "[2]; 0.9 mg, Ex.1 weekly scheme 1, wk 3, 0.9 mg sc, read-out: AUC0-168 (gMean)", "result": 2.48, "unit": "µM·h"}, {"measurement": "Cmax", "setting": "[2]; 0.9 mg, Ex.1 weekly scheme 1, wk 3, 0.9 mg sc", "result": 20.6, "unit": "nM"}, {"measurement": "AUC(0-t)", "setting": "[2]; 1.2 mg, Ex.1 twice weekly scheme, wk 7, 1.2 mg sc, read-out: AUC0-72 (gMean)", "result": 3.56, "unit": "µM·h"}, {"measurement": "Cmax", "setting": "[2]; 1.2 mg, Ex.1 twice weekly scheme, wk 7, 1.2 mg sc", "result": 58.8, "unit": "nM"}, {"measurement": "AUC(0-t)", "setting": "[2]; 1.2 mg, Ex.1 weekly scheme 1, wk 4, 1.2 mg sc, read-out: AUC0-168 (gMean)", "result": 3.36, "unit": "µM·h"}, {"measurement": "Cmax", "setting": "[2]; 1.2 mg, Ex.1 weekly scheme 1, wk 4, 1.2 mg sc", "result": 28.1, "unit": "nM"}, {"measurement": "AUC(0-t)", "setting": "[2]; 1.2 mg, Ex.1 weekly scheme 2, wk 3, 1.2 mg sc, read-out: AUC0-168 (gMean)", "result": 3.56, "unit": "µM·h"}, {"measurement": "Cmax", "setting": "[2]; 1.2 mg, Ex.1 weekly scheme 2, wk 3, 1.2 mg sc", "result": 31.7, "unit": "nM"}, {"measurement": "AUC(0-t)", "setting": "[2]; 1.2 mg, Ex.1 weekly scheme 3, wk 3, 1.2 mg sc, read-out: AUC0-168 (gMean)", "result": 3.23, "unit": "µM·h"}, {"measurement": "Cmax", "setting": "[2]; 1.2 mg, Ex.1 weekly scheme 3, wk 3, 1.2 mg sc", "result": 28.1, "unit": "nM"}, {"measurement": "AUC(0-t)", "setting": "[2]; 1.2 mg, Ex.1 weekly scheme 4, wk 5, 1.2 mg sc, read-out: AUC0-168 (gMean)", "result": 3.94, "unit": "µM·h"}, {"measurement": "Cmax", "setting": "[2]; 1.2 mg, Ex.1 weekly scheme 4, wk 5, 1.2 mg sc", "result": 36, "unit": "nM"}, {"measurement": "AUC(0-t)", "setting": "[2]; 1.2 mg, Ex.1 weekly scheme 4, wk 6, 1.2 mg sc, read-out: AUC0-168 (gMean)", "result": 4.7, "unit": "µM·h"}, {"measurement": "Cmax", "setting": "[2]; 1.2 mg, Ex.1 weekly scheme 4, wk 6, 1.2 mg sc", "result": 41.9, "unit": "nM"}, {"measurement": "AUC(0-t)", "setting": "[2]; 1.2 mg, Ex.1 weekly scheme 4, wk 7, 1.2 mg sc, read-out: AUC0-168 (gMean)", "result": 5.19, "unit": "µM·h"}, {"measurement": "Cmax", "setting": "[2]; 1.2 mg, Ex.1 weekly scheme 4, wk 7, 1.2 mg sc", "result": 49, "unit": "nM"}, {"measurement": "AUC(0-t)", "setting": "[2]; 1.2 mg, Ex.1 weekly scheme 5, wk 3, 1.2 mg sc, read-out: AUC0-168 (gMean)", "result": 3.79, "unit": "µM·h"}, {"measurement": "Cmax", "setting": "[2]; 1.2 mg, Ex.1 weekly scheme 5, wk 3, 1.2 mg sc", "result": 31.5, "unit": "nM"}, {"measurement": "AUC(0-t)", "setting": "[2]; 1.5 mg, Ex.1 twice weekly scheme, wk 9, 1.5 mg sc, read-out: AUC0-72 (gMean)", "result": 5, "unit": "µM·h"}, {"measurement": "Cmax", "setting": "[2]; 1.5 mg, Ex.1 twice weekly scheme, wk 9, 1.5 mg sc", "result": 78.3, "unit": "nM"}, {"measurement": "AUC(0-t)", "setting": "[2]; 1.5 mg, Ex.1 weekly scheme 1, wk 5, 1.5 mg sc, read-out: AUC0-168 (gMean)", "result": 4.49, "unit": "µM·h"}, {"measurement": "Cmax", "setting": "[2]; 1.5 mg, Ex.1 weekly scheme 1, wk 5, 1.5 mg sc", "result": 37.8, "unit": "nM"}, {"measurement": "AUC(0-t)", "setting": "[2]; 1.6 mg, Ex.1 weekly scheme 2, wk 4, 1.6 mg sc, read-out: AUC0-168 (gMean)", "result": 5.13, "unit": "µM·h"}, {"measurement": "Cmax", "setting": "[2]; 1.6 mg, Ex.1 weekly scheme 2, wk 4, 1.6 mg sc", "result": 44.3, "unit": "nM"}, {"measurement": "AUC(0-t)", "setting": "[2]; 1.8 mg, Ex.1 twice weekly scheme, wk 11, 1.8 mg sc, read-out: AUC0-72 (gMean)", "result": 5.69, "unit": "µM·h"}, {"measurement": "Cmax", "setting": "[2]; 1.8 mg, Ex.1 twice weekly scheme, wk 11, 1.8 mg sc", "result": 93.6, "unit": "nM"}, {"measurement": "AUC(0-t)", "setting": "[2]; 1.8 mg, Ex.1 weekly scheme 1, wk 6, 1.8 mg sc, read-out: AUC0-168 (gMean)", "result": 5.53, "unit": "µM·h"}, {"measurement": "Cmax", "setting": "[2]; 1.8 mg, Ex.1 weekly scheme 1, wk 6, 1.8 mg sc", "result": 45.5, "unit": "nM"}, {"measurement": "AUC(0-t)", "setting": "[2]; 1.8 mg, Ex.1 weekly scheme 3, wk 4, 1.8 mg sc, read-out: AUC0-168 (gMean)", "result": 5.2, "unit": "µM·h"}, {"measurement": "Cmax", "setting": "[2]; 1.8 mg, Ex.1 weekly scheme 3, wk 4, 1.8 mg sc", "result": 46.5, "unit": "nM"}, {"measurement": "AUC(0-t)", "setting": "[2]; 1.8 mg, Ex.1 weekly scheme 4, wk 11, 1.8 mg sc, read-out: AUC0-168 (gMean)", "result": 8.16, "unit": "µM·h"}, {"measurement": "Cmax", "setting": "[2]; 1.8 mg, Ex.1 weekly scheme 4, wk 11, 1.8 mg sc", "result": 69.9, "unit": "nM"}, {"measurement": "AUC(0-t)", "setting": "[2]; 1.8 mg, Ex.1 weekly scheme 4, wk 19, 1.8 mg sc, read-out: AUC0-168 (gMean)", "result": 6.66, "unit": "µM·h"}, {"measurement": "Cmax", "setting": "[2]; 1.8 mg, Ex.1 weekly scheme 4, wk 19, 1.8 mg sc", "result": 60.2, "unit": "nM"}, {"measurement": "AUC(0-t)", "setting": "[2]; 1.8 mg, Ex.1 weekly scheme 5, wk 5, 1.8 mg sc, read-out: AUC0-168 (gMean)", "result": 6.08, "unit": "µM·h"}]}]}
